How the values were obtained:
[1] = target: 3C-like main protease (3CLpro) or Nsp5 (Severe acute respiratory syndrome coronavirus 2, UniProt P0DTD1); details: computational screening (Wu et al.); cited from earlier work
[2] = four patients, 100 mg twice daily or daily

Structure (SMILES)	clinical course on azithromycin before the switch to doxycycline (SARS-CoV-2; Example 4 (case 4): hospital days 1-3, with ceftriaxone)	retesting for SARS-CoV-2 (SARS-CoV-2; Example 2: after 3 weeks)	clinical course (fever, symptoms) (SARS-CoV-2; Example 2: person, pulmonary sarcoidosis, doxycycline 100 mg orally twice a day for 10 days)	repeat nasopharyngeal swab testing for SARS-CoV-2 RNA (SARS-CoV-2; Example 3: on 9 May 2020)	lung infiltrates on chest X-ray (SARS-CoV-2; Example 4: after 14 days of doxycycline therapy)	CRP (SARS-CoV-2; Example 4: by day 8 (CRP 13 by day 3, before doxycycline))	supplemental oxygen requirement (SARS-CoV-2; Example 4: person, doxycycline 100 mg twice daily from hospital day 4, by day 8)	overall clinical outcome of the four patients (SARS-CoV-2; [2])	progression to severe disease (SARS-CoV-2; [2])	safety issues with use (SARS-CoV-2; four patients, standard doses for 5 to 14 days)	3CLpro binding by computational screening [1]
CC[C@H]1OC(=O)[C@H](C)[C@@H](O[C@H]2C[C@@](C)(OC)[C@@H](O)[C@H](C)O2)[C@H](C)[C@@H](O[C@@H]2O[C@H](C)C[C@H](N(C)C)[C@H]2O)[C@](C)(O)C[C@@H](C)CN(C)[C@H](C)[C@@H](O)[C@]1(C)O [azithromycin]	several days of worsening	–	–	–	–	–	–	–	–	–	–
C[C@H]1c2cccc(O)c2C(=O)C2=C(O)[C@]3(O)C(=O)C(C(N)=O)=C(O)[C@@H](N(C)C)[C@@H]3[C@@H](O)[C@@H]21 [doxycycline]	–	negative	Fever resolved and they remained asymptomatic	negative	resolved	1.0	no longer required oxygen	All improved	None progressed to severe disease	No safety issues were noted	can bind to 3CLpro

Source: patent US20230158049A1, “COMPOSITIONS AND METHODS FOR TREATING VIRUSES” (University of Virginia Patent Foundation, priority 2020, published 2023)
